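A five-concentration, 48-hour dose response in 96-well plates underlies each endpoint, interpolated linearly between surrounding concentrations. Abbreviation: GI50, concentration required for 50% inhibition of growth. The concentration for full growth arrest is given as TGI.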
How the values were obtained:
Assay in all cases: growth of human tumour cells (NCI), 48 h
MCF7 breast = system: MCF7 breast
NCI-H23 lung = system: NCI-H23 lung
T-47D breast = system: T-47D breast
SR leukemia = system: SR leukemia
SK-MEL-28 melanoma = system: SK-MEL-28 melanoma
HCT-116 colon = system: HCT-116 colon
M14 melanoma = system: M14 melanoma
MALME-3M melanoma = system: MALME-3M melanoma
OVCAR-4 ovarian = system: OVCAR-4 ovarian
MOLT-4 leukemia = system: MOLT-4 leukemia
CAKI-1 renal = system: CAKI-1 renal
MDA-MB-231 breast = system: MDA-MB-231 breast
SNB-75 CNS = system: SNB-75 CNS
TK-10 renal = system: TK-10 renal
EKVX NSCLC = system: EKVX NSCLC
PC-3 prostate = system: PC-3 prostate
KM12 colon = system: KM12 colon
HOP-92 NSCLC = system: HOP-92 NSCLC
LOX IMVI melanoma = system: LOX IMVI melanoma
RXF 393 renal = system: RXF 393 renal
UO-31 renal = system: UO-31 renal
NCI/ADR-RES ovarian = system: NCI/ADR-RES ovarian
OVCAR-8 ovarian = system: OVCAR-8 ovarian
NCI-H226 lung = system: NCI-H226 lung
ACHN renal = system: ACHN renal
SF-539 CNS = system: SF-539 CNS
UACC-257 melanoma = system: UACC-257 melanoma
SF-268 CNS = system: SF-268 CNS
COLO 205 colon = system: COLO 205 colon
OVCAR-5 ovarian = system: OVCAR-5 ovarian
A549 NSCLC = system: A549 NSCLC
OVCAR-3 ovarian = system: OVCAR-3 ovarian
HL-60(TB) leukemia = system: HL-60(TB) leukemia
HT29 colon = system: HT29 colon
IGROV1 ovarian = system: IGROV1 ovarian
K-562 leukemia = system: K-562 leukemia
SK-OV-3 ovarian = system: SK-OV-3 ovarian
MDA-MB-435 = system: MDA-MB-435
BT-549 breast = system: BT-549 breast
NCI-H460 lung = system: NCI-H460 lung
NCI-H522 lung = system: NCI-H522 lung
UACC-62 melanoma = system: UACC-62 melanoma
786-0 renal = system: 786-0 renal
SW-620 colon = system: SW-620 colon
U251 CNS = system: U251 CNS
SNB-19 CNS = system: SNB-19 CNS
HS 578T breast = system: HS 578T breast
SK-MEL-5 melanoma = system: SK-MEL-5 melanoma
HCT-15 colon = system: HCT-15 colon
CCRF-CEM leukemia = system: CCRF-CEM leukemia
SK-MEL-2 melanoma = system: SK-MEL-2 melanoma
RPMI-8226 leukemia = system: RPMI-8226 leukemia
HOP-62 NSCLC = system: HOP-62 NSCLC
DU-145 prostate = system: DU-145 prostate
SN12C renal = system: SN12C renal
A498 renal = system: A498 renal
SF-295 CNS = system: SF-295 CNS

**Q.** With `COc1ccc2[nH]cc(/C=C3\C(=O)Nc4ccccc43)c2c1` as the compound, how does the GI50 (MCF7 breast) read?
**A.** 2.45 µM

**Q.** And the TGI (MCF7 breast)?
**A.** 10.5 µM

**Q.** And the GI50 (NCI-H23 lung)?
**A.** 10.5 µM

**Q.** And the TGI (NCI-H23 lung)?
**A.** 49.6 µM

**Q.** What about the GI50 (T-47D breast) of the same compound?
**A.** 4.91 µM

**Q.** What about the TGI (T-47D breast) of the same compound?
**A.** 30.3 µM

**Q.** And the GI50 (SR leukemia)?
**A.** 1.96 µM

**Q.** And the TGI (SR leukemia)?
**A.** 5.2 µM

**Q.** What about the GI50 (SK-MEL-28 melanoma) of the same compound?
**A.** 10.5 µM

**Q.** What about the TGI (SK-MEL-28 melanoma) of the same compound?
**A.** 42 µM

**Q.** What about the GI50 (HCT-116 colon) of the same compound?
**A.** 3.41 µM

**Q.** And the TGI (HCT-116 colon)?
**A.** 14.5 µM

**Q.** And the GI50 (M14 melanoma)?
**A.** 2.99 µM

**Q.** What about the TGI (M14 melanoma) of the same compound?
**A.** 14.2 µM

**Q.** What about the GI50 (MALME-3M melanoma) of the same compound?
**A.** 11.2 µM

**Q.** What about the TGI (MALME-3M melanoma) of the same compound?
**A.** 49.1 µM

**Q.** What about the GI50 (OVCAR-4 ovarian) of the same compound?
**A.** 6.21 µM

**Q.** What about the TGI (OVCAR-4 ovarian) of the same compound?
**A.** 60.3 µM

**Q.** What about the GI50 (MOLT-4 leukemia) of the same compound?
**A.** 2.33 µM

**Q.** And the TGI (MOLT-4 leukemia)?
**A.** 7.4 µM

**Q.** And the GI50 (CAKI-1 renal)?
**A.** 4.12 µM

**Q.** And the TGI (CAKI-1 renal)?
**A.** 26.4 µM

**Q.** And the GI50 (MDA-MB-231 breast)?
**A.** 3.95 µM

**Q.** And the TGI (MDA-MB-231 breast)?
**A.** 21.9 µM

**Q.** And the GI50 (SNB-75 CNS)?
**A.** 3.14 µM

**Q.** What about the TGI (SNB-75 CNS) of the same compound?
**A.** 15.1 µM

**Q.** And the GI50 (TK-10 renal)?
**A.** 7.98 µM

**Q.** What about the TGI (TK-10 renal) of the same compound?
**A.** 31.3 µM

**Q.** And the GI50 (EKVX NSCLC)?
**A.** 2.73 µM

**Q.** And the TGI (EKVX NSCLC)?
**A.** 15.1 µM

**Q.** What about the GI50 (PC-3 prostate) of the same compound?
**A.** 5.89 µM

**Q.** What about the TGI (PC-3 prostate) of the same compound?
**A.** 25.8 µM

**Q.** And the GI50 (KM12 colon)?
**A.** 0.246 µM

**Q.** What about the TGI (KM12 colon) of the same compound?
**A.** 13 µM

**Q.** What about the GI50 (HOP-92 NSCLC) of the same compound?
**A.** 3.84 µM

**Q.** And the TGI (HOP-92 NSCLC)?
**A.** 13.6 µM

**Q.** What about the GI50 (LOX IMVI melanoma) of the same compound?
**A.** 4.62 µM

**Q.** And the TGI (LOX IMVI melanoma)?
**A.** 15.9 µM

**Q.** What about the GI50 (RXF 393 renal) of the same compound?
**A.** 2.95 µM

**Q.** And the TGI (RXF 393 renal)?
**A.** 13.3 µM

**Q.** What about the GI50 (UO-31 renal) of the same compound?
**A.** 6.94 µM

**Q.** And the TGI (UO-31 renal)?
**A.** 32.4 µM

**Q.** What about the GI50 (NCI/ADR-RES ovarian) of the same compound?
**A.** 4.97 µM

**Q.** What about the TGI (NCI/ADR-RES ovarian) of the same compound?
**A.** 37 µM

**Q.** What about the GI50 (OVCAR-8 ovarian) of the same compound?
**A.** 7.02 µM

**Q.** And the TGI (OVCAR-8 ovarian)?
**A.** 21.8 µM

**Q.** And the GI50 (NCI-H226 lung)?
**A.** 7.65 µM

**Q.** And the TGI (NCI-H226 lung)?
**A.** 35.9 µM

**Q.** What about the GI50 (ACHN renal) of the same compound?
**A.** 5.85 µM

**Q.** What about the TGI (ACHN renal) of the same compound?
**A.** 37.5 µM

**Q.** And the GI50 (SF-539 CNS)?
**A.** 5.43 µM

**Q.** What about the TGI (SF-539 CNS) of the same compound?
**A.** 18.1 µM

**Q.** What about the GI50 (UACC-257 melanoma) of the same compound?
**A.** 14.3 µM

**Q.** What about the TGI (UACC-257 melanoma) of the same compound?
**A.** 73.1 µM

**Q.** And the GI50 (SF-268 CNS)?
**A.** 5.92 µM

**Q.** And the TGI (SF-268 CNS)?
**A.** 29.9 µM

**Q.** What about the GI50 (COLO 205 colon) of the same compound?
**A.** 3.86 µM

**Q.** And the TGI (COLO 205 colon)?
**A.** 23.2 µM

**Q.** And the GI50 (OVCAR-5 ovarian)?
**A.** 11.6 µM

**Q.** And the TGI (OVCAR-5 ovarian)?
**A.** 42 µM

**Q.** What about the GI50 (A549 NSCLC) of the same compound?
**A.** 4.68 µM

**Q.** What about the TGI (A549 NSCLC) of the same compound?
**A.** 24.4 µM

**Q.** And the GI50 (OVCAR-3 ovarian)?
**A.** 9.62 µM

**Q.** And the TGI (OVCAR-3 ovarian)?
**A.** 35.9 µM

**Q.** And the GI50 (HL-60(TB) leukemia)?
**A.** 1.78 µM

**Q.** And the TGI (HL-60(TB) leukemia)?
**A.** 4.26 µM

**Q.** What about the GI50 (HT29 colon) of the same compound?
**A.** 3.6 µM

**Q.** What about the TGI (HT29 colon) of the same compound?
**A.** 14.3 µM

**Q.** What about the GI50 (IGROV1 ovarian) of the same compound?
**A.** 2.82 µM

**Q.** What about the TGI (IGROV1 ovarian) of the same compound?
**A.** 16.8 µM

**Q.** And the GI50 (K-562 leukemia)?
**A.** 2.28 µM

**Q.** What about the TGI (K-562 leukemia) of the same compound?
**A.** 9.83 µM

**Q.** And the GI50 (SK-OV-3 ovarian)?
**A.** 4.75 µM

**Q.** And the TGI (SK-OV-3 ovarian)?
**A.** 21.5 µM

**Q.** What about the GI50 (MDA-MB-435) of the same compound?
**A.** 2.39 µM

**Q.** And the TGI (MDA-MB-435)?
**A.** 5.97 µM

**Q.** What about the GI50 (BT-549 breast) of the same compound?
**A.** 2.9 µM

**Q.** What about the TGI (BT-549 breast) of the same compound?
**A.** 21.4 µM

**Q.** And the GI50 (NCI-H460 lung)?
**A.** 4.09 µM

**Q.** What about the TGI (NCI-H460 lung) of the same compound?
**A.** 18.7 µM

**Q.** What about the GI50 (NCI-H522 lung) of the same compound?
**A.** 4.59 µM

**Q.** And the TGI (NCI-H522 lung)?
**A.** 19.6 µM

**Q.** And the GI50 (UACC-62 melanoma)?
**A.** 4.09 µM

**Q.** And the TGI (UACC-62 melanoma)?
**A.** 20.6 µM

**Q.** And the GI50 (786-0 renal)?
**A.** 11.9 µM

**Q.** And the TGI (786-0 renal)?
**A.** 30.2 µM

**Q.** And the GI50 (SW-620 colon)?
**A.** 2.92 µM

**Q.** And the TGI (SW-620 colon)?
**A.** 12.8 µM

**Q.** And the GI50 (U251 CNS)?
**A.** 6.12 µM

**Q.** And the TGI (U251 CNS)?
**A.** 21.2 µM

**Q.** What about the GI50 (SNB-19 CNS) of the same compound?
**A.** 8.7 µM

**Q.** And the TGI (SNB-19 CNS)?
**A.** > 100 µM

**Q.** What about the GI50 (HS 578T breast) of the same compound?
**A.** 3.79 µM

**Q.** And the TGI (HS 578T breast)?
**A.** 19.9 µM

**Q.** And the GI50 (SK-MEL-5 melanoma)?
**A.** 3.43 µM

**Q.** What about the TGI (SK-MEL-5 melanoma) of the same compound?
**A.** 15.2 µM

**Q.** And the GI50 (HCT-15 colon)?
**A.** 3.86 µM

**Q.** What about the TGI (HCT-15 colon) of the same compound?
**A.** 17.5 µM

**Q.** What about the GI50 (CCRF-CEM leukemia) of the same compound?
**A.** 3.94 µM

**Q.** And the TGI (CCRF-CEM leukemia)?
**A.** 18.8 µM

**Q.** What about the GI50 (SK-MEL-2 melanoma) of the same compound?
**A.** 10.2 µM

**Q.** And the TGI (SK-MEL-2 melanoma)?
**A.** 29.2 µM

**Q.** And the GI50 (RPMI-8226 leukemia)?
**A.** 2.35 µM

**Q.** And the TGI (RPMI-8226 leukemia)?
**A.** 6.84 µM

**Q.** What about the GI50 (HOP-62 NSCLC) of the same compound?
**A.** 5.18 µM

**Q.** And the TGI (HOP-62 NSCLC)?
**A.** 19.8 µM

**Q.** And the GI50 (DU-145 prostate)?
**A.** 5.2 µM

**Q.** What about the TGI (DU-145 prostate) of the same compound?
**A.** 22.3 µM

**Q.** What about the GI50 (SN12C renal) of the same compound?
**A.** 7.37 µM

**Q.** And the TGI (SN12C renal)?
**A.** 39.9 µM

**Q.** What about the GI50 (A498 renal) of the same compound?
**A.** 3.15 µM

**Q.** And the TGI (A498 renal)?
**A.** 15.1 µM

**Q.** And the GI50 (SF-295 CNS)?
**A.** 10.8 µM

**Q.** And the TGI (SF-295 CNS)?
**A.** 30 µM

Source: PubChem BioAssay (NCI)
